In ChEMBL document CHEMBL1201862, “PubChem BioAssay data set” (2004):
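Assay format: 96-well plates, 48-hour exposure. GI50 marks 50% less growth.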 Activity calls are given as the source filed them. Cut-off read from the data, not from the text of the source: active = GI50 up to about 1.1 µM and inactive = higher.

Key:
Experiment in all cases: growth of human tumour cells (NCI), 48 h
A498 = test system: A498
CCRF-CEM = test system: CCRF-CEM
COLO 205 = test system: COLO 205
EKVX = test system: EKVX
HCC 2998 = test system: HCC 2998
HCT-15 = test system: HCT-15
HOP-92 = test system: HOP-92
Hs-578T = test system: Hs-578T
IGROV-1 = test system: IGROV-1
M14 = test system: M14
MDA-N = test system: MDA-N
PC-3 = test system: PC-3
RXF 393 = test system: RXF 393
SK-MEL-2 = test system: SK-MEL-2
SNB-19 = test system: SNB-19
UO-31 = test system: UO-31
NCI-H226 = test system: NCI-H226

CCN(CC)C(=S)N/N=C(\C)c1cccc(C)n1
GI50 (A498): 0.183 µM (active)
GI50 (CCRF-CEM): < 0.01 µM (active)
GI50 (COLO 205): < 0.01 µM (active)
GI50 (EKVX): < 0.01 µM (active)
GI50 (HCC 2998): 0.363 µM (active)
GI50 (HCT-15): < 0.0249 µM
GI50 (HOP-92): 1.49 µM (inactive)
GI50 (Hs-578T): 23.4 µM (inactive)
GI50 (IGROV-1): < 0.01 µM (active)
GI50 (M14): < 0.041 µM (active)
GI50 (MDA-N): 0.474 µM (active)
GI50 (PC-3): < 0.01 µM (active)
GI50 (RXF 393): 0.568 µM (active)
GI50 (SK-MEL-2): 2.2 µM (inactive)
GI50 (SNB-19): 0.571 µM (active)
GI50 (UO-31): 0.133 µM (active)

CC1C/C(=C\c2ccc(O)c(O)c2)C(=O)/C(=C/c2ccc(O)c(O)c2)C1 (stereo not drawn)
GI50 (A498): 3.18 µM (inactive)
GI50 (CCRF-CEM): 3.06 µM (inactive)
GI50 (COLO 205): 16.9 µM (inactive)
GI50 (EKVX): 14.1 µM (inactive)
GI50 (HCC 2998): 18.2 µM (inactive)
GI50 (HCT-15): 8.85 µM
GI50 (HOP-92): 6.18 µM (inactive)
GI50 (Hs-578T): 4.06 µM (inactive)
GI50 (IGROV-1): 6 µM (inactive)
GI50 (MDA-N): 4.69 µM (inactive)
GI50 (NCI-H226): 2.86 µM (inactive)
GI50 (PC-3): 14 µM (inactive)
GI50 (RXF 393): 3.73 µM (inactive)
GI50 (SK-MEL-2): 6.97 µM (inactive)
GI50 (SNB-19): 10.7 µM (inactive)

S=C(NCc1ccccn1)N/N=C/c1ccccn1
GI50 (A498): < 0.0113 µM (active)
GI50 (CCRF-CEM): < 0.01 µM (active)
GI50 (COLO 205): < 0.01 µM (active)
GI50 (EKVX): < 0.0194 µM (active)
GI50 (HCC 2998): 0.229 µM (active)
GI50 (HCT-15): < 0.01 µM
GI50 (HOP-92): < 0.0206 µM (active)
GI50 (Hs-578T): 1.14 µM (inactive)
GI50 (IGROV-1): < 0.01 µM (active)
GI50 (M14): < 0.01 µM (active)
GI50 (MDA-N): 0.454 µM (active)
GI50 (NCI-H226): < 0.0168 µM (active)
GI50 (PC-3): < 0.01 µM (active)
GI50 (RXF 393): < 0.0378 µM (active)
GI50 (SK-MEL-2): 0.0234 µM (active)
GI50 (SNB-19): 0.726 µM (active)
GI50 (UO-31): < 0.0331 µM (active)

Cn1cc(C(=O)c2nccc3c2cnc2ccccc23)ccc1=O
GI50 (A498): > 100 µM (inactive)
GI50 (CCRF-CEM): > 100 µM (inactive)
GI50 (COLO 205): 69.5 µM (inactive)
GI50 (EKVX): > 100 µM (inactive)
GI50 (HCC 2998): > 100 µM (inactive)
GI50 (HCT-15): > 100 µM
GI50 (HOP-92): > 100 µM (inactive)
GI50 (Hs-578T): > 100 µM (inactive)
GI50 (M14): > 100 µM (inactive)
GI50 (MDA-N): > 100 µM (inactive)
GI50 (NCI-H226): > 100 µM (inactive)
GI50 (PC-3): > 100 µM (inactive)
GI50 (RXF 393): < 0.01 µM (active)
GI50 (SK-MEL-2): > 100 µM (inactive)
GI50 (SNB-19): > 100 µM (inactive)
GI50 (UO-31): 32.1 µM (inactive)

CC(=O)c1cc(I)c(O)c2ncccc12
GI50 (A498): 2.85 µM (inactive)
GI50 (CCRF-CEM): 2.07 µM (inactive)
GI50 (COLO 205): 3.11 µM (inactive)
GI50 (EKVX): 6.49 µM (inactive)
GI50 (HCC 2998): 8.17 µM (inactive)
GI50 (HCT-15): 5.13 µM
GI50 (HOP-92): 2.07 µM (inactive)
GI50 (Hs-578T): > 10 µM (inactive)
GI50 (IGROV-1): 2.94 µM (inactive)
GI50 (M14): 1.97 µM (inactive)
GI50 (MDA-N): 5.02 µM (inactive)
GI50 (NCI-H226): 2.33 µM (inactive)
GI50 (PC-3): 5.71 µM (inactive)
GI50 (RXF 393): 3.92 µM (inactive)
GI50 (SK-MEL-2): 6.35 µM (inactive)
GI50 (SNB-19): 5.47 µM (inactive)

Cc1ccc(C(=O)N/N=C(\N=N\c2cccc([N+](=O)[O-])c2)c2ccc(N(CCC#N)CCC#N)cc2C)cc1
GI50 (A498): 25.8 µM (inactive)
GI50 (CCRF-CEM): 24.8 µM (inactive)
GI50 (COLO 205): 4.73 µM (inactive)
GI50 (EKVX): 25.5 µM (inactive)
GI50 (HCC 2998): 30.9 µM (inactive)
GI50 (HCT-15): 30.8 µM
GI50 (HOP-92): 45.9 µM (inactive)
GI50 (Hs-578T): 23.4 µM (inactive)
GI50 (IGROV-1): 19.2 µM (inactive)
GI50 (M14): 33.4 µM (inactive)
GI50 (MDA-N): 25.1 µM (inactive)
GI50 (PC-3): 23.8 µM (inactive)
GI50 (RXF 393): 8.75 µM (inactive)
GI50 (SK-MEL-2): 26.9 µM (inactive)
GI50 (SNB-19): 53.7 µM (inactive)
GI50 (UO-31): 39.5 µM (inactive)

O=C(NCCNCCCNC(=O)c1cc(-c2ccccc2)nc2ccccc12)c1cccc(OCc2ccccc2)c1OCc1ccccc1
GI50 (A498): 1.6 µM (inactive)
GI50 (CCRF-CEM): 1.79 µM (inactive)
GI50 (COLO 205): 1.69 µM (inactive)
GI50 (EKVX): 1.69 µM (inactive)
GI50 (HCC 2998): 1.26 µM (inactive)
GI50 (HCT-15): 1.74 µM
GI50 (HOP-92): 1.53 µM (inactive)
GI50 (Hs-578T): 2.58 µM (inactive)
GI50 (IGROV-1): 1.85 µM (inactive)
GI50 (M14): 1.65 µM (inactive)
GI50 (MDA-N): 1.66 µM (inactive)
GI50 (NCI-H226): 1.69 µM (inactive)
GI50 (PC-3): 1.67 µM (inactive)
GI50 (RXF 393): 2.13 µM (inactive)
GI50 (SNB-19): 1.78 µM (inactive)
GI50 (UO-31): 1.66 µM (inactive)

CCOP(=O)(CCCC(O)CNc1nc(N)nc(Cl)c1/N=N/c1ccc(Cl)cc1)OCC (stereo not drawn)
GI50 (A498): 6.7 µM (inactive)
GI50 (CCRF-CEM): 3.21 µM (inactive)
GI50 (COLO 205): 6.64 µM (inactive)
GI50 (EKVX): 3.63 µM (inactive)
GI50 (HCC 2998): 15.4 µM (inactive)
GI50 (HCT-15): 6.28 µM
GI50 (HOP-92): 5.6 µM (inactive)
GI50 (Hs-578T): 4.85 µM (inactive)
GI50 (IGROV-1): 11.9 µM (inactive)
GI50 (MDA-N): 5.82 µM (inactive)
GI50 (NCI-H226): 7.05 µM (inactive)
GI50 (PC-3): 4.86 µM (inactive)
GI50 (RXF 393): 5.24 µM (inactive)
GI50 (SK-MEL-2): 12.2 µM (inactive)
GI50 (SNB-19): 10.6 µM (inactive)
GI50 (UO-31): 3.56 µM (inactive)

Cc1cc(-n2c(/C=C/c3ccc(Cl)cc3)nc3cc(Cl)ccc3c2=O)on1
GI50 (A498): 2.31 µM (inactive)
GI50 (CCRF-CEM): > 50 µM (inactive)
GI50 (COLO 205): 18.9 µM (inactive)
GI50 (EKVX): 22.4 µM (inactive)
GI50 (HCC 2998): > 50 µM (inactive)
GI50 (HCT-15): 28.1 µM
GI50 (HOP-92): 16 µM (inactive)
GI50 (Hs-578T): 8.32 µM (inactive)
GI50 (IGROV-1): 29.6 µM (inactive)
GI50 (M14): 12.7 µM (inactive)
GI50 (MDA-N): 24.8 µM (inactive)
GI50 (NCI-H226): 12.4 µM (inactive)
GI50 (PC-3): > 50 µM (inactive)
GI50 (SNB-19): 9.86 µM (inactive)
GI50 (UO-31): 3.61 µM (inactive)
